Earlier results on three compounds are cited in patent publication US6703036B1, “Stomach-action molluscicides” (priority 1997, dated 2004).

The LD50 is the dose expected to kill half of the subjects tested.

The subject of series [1] is rat. As to conditions: oral administration.
Series [2] deals with golden apple snail, Pomacea canaliculata. As to conditions: used on its own at 100 ppm, aqueous solution on the water surface.

Regarding Sorbitan monostearate, the LD50 in series [1] was 31000 mg/kg.

On to Sorbitan monolaurate, for which the median lethal dose (LD50) in series [1] was 33600 mg/kg.

With `CCCCCCCCCCCCOS(=O)(=O)[O-].[Na+]` [Sodium dodecyl sulphate], the molluscicidal activity entry in series [2] is “effective molluscicide”.
